Results on two compounds are retold here after patent publication US11583525B2, “Geranylgeranyltransferase I inhibitor for treatment of a PTEN defective cancer” (H. LEE MOFFITT CANCER CENTER AND RESEARCH INSTITUTE, INC., priority 2017, dated 2023).

For one assay, the system named is Ca2+ mobilization. As to the kind of experiment: Cytosolic Ca2+ mobilization measured with aequorin in NHFs in response to ATP. Type of assay: cell-based, human. The note with it: NHFs re-stimulated with serum for one hour; ATP stimulation. The protocol:
FIGS. 7A, 7B, 7C, 7D, 7E, 7F, 7G, 7H, and 7I show FBXL2 controls Ca2+ mobilization and Ca2+-mediated apoptosis. […] Quantification of three independent experiments is shown and represented as percentage increase compared to EXP cells, which were set as 100%. P values were calculated by one-way ANOVA and multiple-comparisons test. Error bars indicate s.e.m. […] Quantifications and P value analyses was performed as in a. […] On the left, representative traces. On the right, quantification of three independent experiments. P values were calculated by a one-way ANOVA and multiple-comparisons test. Error bars indicate s.e.m. […] Concentrations of cytosolic (7d) and mitochondrial (7e) Ca2+ were measured with the appropriate aequorin in response to agonist stimulation (ATP). […] On the right, quantifications of three independent experiments. P values were calculated by one-way ANOVA and multiple-comparisons test. […] P values were calculated by unpaired t-test. […] Induction of cell death was evaluated after treatment with H2O2 using automated nuclei count analysis of twenty randomly chosen fields. P values were calculated by one-way ANOVA and multiple-comparisons test. […] Left, representative traces showing concentrations of mitochondrial Ca2+ measured with mitochondrial targeted aequorin. Right, quantification of three independent experiments. P values were calculated by one-way ANOVA and multiple-comparisons test. […]
For orientation: A change in cytosolic calcium serves as a functional read-out for many receptors and channels.

The next assay deals with A549 cells. As to the kind of experiment: A549 cell xenografts in NOD/SCID gamma mice, GGTi-2418 alone or in combination with PDT. The format is in vivo. The note with it: 50 mg kg-1 intratumoural injection. From the text:
FIGS. 4A, 4B, 4C, and 4D show both a non-degradable IP3R3 mutant and GGTi-2418 sensitize tumours to PDT. […] Implanted xenotransplanted mice, chosen randomly, were subjected to two rounds of PDT (see arrows) or left untreated (UT); n=4-6 mice per group. Left panel, tumour growth kinetics at the indicated time points. Middle panel, representative tumours imaged with IRDye 2-DG at the end of the experiment. Top right panel, representative excised tumours imaged 60 days post-injection. Bottom right panel, quantification of tumour weights. P values for the tumour volume and weight at day 60 were calculated by one-way ANOVA and multiple-comparisons test. Error bars indicate s.e.m. […] Middle panel, quantification of apoptosis. […] AFU, arbitrary fluorescence units. P values were calculated by one-way ANOVA and multiple-comparisons test. […] Bottom right panel, quantification of tumour weights. P values for the tumour volume and weight at day 60 were calculated by one-way ANOVA and multiple-comparisons test. […] Middle panel, quantification of apoptosis. […] P values were calculated by one-way ANOVA and multiple-comparisons test. […]
Experimental animals. […] Tumour growth was monitored daily, and tumour diameters were measured with callipers every other day. The tumour volume was calculated using the following equation: volume=π/6 ×(a×b2), where a is the major diameter and b is the minor diameter. […]

Each structure is given as a SMILES string. Entries after “also recorded” stand apart in the source; their conditions may differ. Peptide text beside a SMILES is read from it. * marks the point of attachment. Cbz = O=C(OCc1ccccc1)*

Consider `Cc1nc[nH]c1CN1CCN(C(=O)N[C@@H](CC(C)C)C(=O)O)[C@@H](Cc2ccccc2)C1=O` [GGTi-2418], for which the “serum-mediated decrease in Ca2+ mobilization” value in the assay on Ca2+ mobilization is “inhibited the serum-mediated decrease in Ca2+ mobilization”. Besides, the “growth rate of xenografts” value in the assay with A549 cells (GGTi-2418 by itself, two rounds of five consecutive days) was “only modestly affected the growth rate of xenografts”. Further, the “sensitization of tumour xenografts to PDT (tumour growth, weight, apoptosis)” value in the assay on A549 cells (GGTi-2418 in combination with PDT) was “sensitizes xenotransplanted tumours to photodynamic therapy; also recorded: significantly sensitized tumour xenografts to PDT”.
As to `CC(C)C[C@@H](C=O)NC(=O)[C@H](CC(C)C)NC(=O)[C@H](CC(C)C)NC(=O)OCc1ccccc1` [MG132] (Cbz-Leu-Leu-Leu-aldehyde), the “serum-mediated decrease in Ca2+ mobilization” value in the assay on Ca2+ mobilization was “inhibited the serum-mediated decrease in Ca2+ mobilization”.
